Assay results: patent publication US5488051A, “Substituted 5,6-dihydro-5-oxo-1,4-dithiino-(2,3-d)-pyridazine-2,3-dicarbonitriles, compositions containing them and their use as antimicrobials” (The Dow Chemical Company, priority 1994, dated 1996)
In brackets after ≈: the same amount, converted by molar mass. Like-named read-outs stand apart in the source and are kept apart here.

What was measured:
[1] = tested on: Pseudomonas aeruginosa (PRD-10); assay: MIC for Pseudomonas aeruginosa PRD-10, nutrient agar; assay type: cell-based, Pseudomonas aeruginosa ATCC 15442; conditions: 30° C., 48 hours, read-out: Minimum Inhibitory Concentration (MIC), PRD
Procedure, shortened: (§1)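 Test compound is mixed into cooled (48° C) nutrient agar at fixed ppm steps up to 500 ppm, at neutral and alkaline pH. After 24 h drying, plates receive replicator spots of bacterial suspension at 10^8 CFU/mL and are incubated 48 h at 30° C before scoring for growth.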

Candida albicans (Ca) = assay: MIC for Candida albicans, malt yeast agar; assay type: cell-based, Candida albicans ATCC 10231; conditions: malt yeast agar; 30° C., 48 hours for yeast; read-out: Minimum Inhibitory Concentration (MIC), Ca
Procedure, shortened: (§2)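 Agar dilution on malt yeast agar with compound (from 1% acetone/water solution) at final 0, 1.0, 2.5, 5, 10, 25, 50, 100, 250, 500 ppm. Plates inoculated by replicator with saline suspensions (1:9 diluted) of 7-day cultures; incubated at 30 °C, read at 48 h for yeast and 72 h for fungi.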

Bacillus subtilis (Bs) = assay: MIC for Bacillus subtilis, nutrient agar; assay type: cell-based, Bacillus subtilis ATCC 8473; conditions: 30° C., 48 hours, read-out: Minimum Inhibitory Concentration (MIC), Bs
Procedure, shortened: as §1

Saccharomyces cerevisiae = assay: MIC for Saccharomyces cerevisiae, malt yeast agar; assay type: cell-based, Saccharomyces cerevisiae ATCC 4105; conditions: malt yeast agar, 30° C., 48 hours for yeast, read-out: Minimum Inhibitory Concentration (MIC), Sc
Procedure, shortened: as §2

[2] = tested on: Staphylococcus aureus (Sa); assay: MIC for Staphylococcus aureus, nutrient agar; assay type: cell-based, Staphylococcus aureus ATCC 6538; conditions: 30° C., 48 hours, read-out: Minimum Inhibitory Concentration (MIC), Sa
Procedure, shortened: as §1

Escherichia coli (Ec) = assay: MIC for Escherichia coli, nutrient agar; assay type: cell-based, Escherichia coli ATCC 11229; conditions: 30° C., 48 hours, read-out: Minimum Inhibitory Concentration (MIC), Ec
Procedure, shortened: as §1

Compound | MIC ([1]; pH 6.8, nutrient agar) [µg/mL] | MIC ([1]; pH 8.2, nutrient agar) [µg/mL] | MIC (Candida albicans (Ca)) [µg/mL] | MIC (Bacillus subtilis (Bs); pH 6.8, nutrient agar) [µg/mL] | MIC (Bacillus subtilis (Bs); pH 8.2, nutrient agar) [µg/mL] | MIC (Saccharomyces cerevisiae) [µg/mL] | MIC ([2]; pH 6.8, nutrient agar) [µg/mL] | MIC ([2]; pH 8.2, nutrient agar) [µg/mL] | MIC (Escherichia coli (Ec); pH 6.8, nutrient agar) [µg/mL] | MIC (Escherichia coli (Ec); pH 8.2, nutrient agar) [µg/mL]
Cc1ccc(-n2ncc3c(c2=O)SC(C#N)=C(C#N)S3)cc1 [B, 5,6-dihydro-6-(4-methylphenyl)-5-oxo-1,4-dithiino-(2,3-d)-pyridazine-2,3-dicarbonitrile] | > 500 | > 500 | < 10 | < 10 | 25 (≈ 77.1 µM) | < 10 | < 10 | 25 (≈ 77.1 µM) | 50 (≈ 154 µM) | > 500
N#CC1=C(C#N)Sc2c(cnn(-c3ccc(Br)cc3)c2=O)S1 [C, 5,6-dihydro-6-(4-bromophenyl)-5-oxo-1,4-dithiino-(2,3-d)-pyridazine-2,3-dicarbonitrile] | > 500 | > 500 | 10 (≈ 25.7 µM) | < 10 | 100 (≈ 257 µM) | 10 (≈ 25.7 µM) | > 500 | > 500 | 100 (≈ 257 µM) | > 500
